Assay results as given in US20040033555A1 (priority 2003, published 2004).
Like-named read-outs stand apart in the source and are kept apart here.

Assays:
Magnaportha grisea = details: 5 ppm, systemic application to media prior to seeding, Eragrostis curvula, M. grisea strain expressing a FP
[1] = system: Erysiphe graminis f sp. hordei; test: Preventative control of powdery mildew on barley, % disease area by visual scoring and by photon imaging (fluorescein diacetate fluorescence); format: in vivo; details: preventative foliar spray; for % Disease Area, Photon Imaging: FDA fluorescence; for % Disease Area, Visual Scoring: scored by eye
Method: Barley plants (Hordeum vulgari, cv. Boone) are cultivated either as single or multiple plants per plant growth unit, typically in a 2.54 cm by 2.54 cm pot of soil. Plants are grown in an environmentally regulated growth chamber at 20° C. and 70% humidity. The plants are approximately 7 days old at the time of application of the plant treatment agent. Single plant units are sprayed with fungicide standards or experimental plant treatment agents to the point of run-off.
Twenty-four hours following application of the plant treatment agent the barley plants are subsequently inoculated with spores of a fungal plant pathogen and incubated under the appropriate conditions for a period sufficient to allow the development of visible disease symptoms.
Inoculation with powdery mildew is with a spore suspension of Erysiphe graminis f. sp. hoerdei, (the causal agent of barley powdery mildew). Powdery mildew-inoculated plants are placed in a dry area for 4 hours following inoculation and are subsequently grown for an additional seven days at 20° C. and 65% humidity. Powdery mildew-infected plants are 15 days old at the time of rating of disease.
For the determination of the % disease area for a sample, a binary image is generated which defined the area of pixels associated with a LGM for each object in the field of view. The percent disease area is calculated by dividing the pixel number for the LGM area by the pixel number for the sample area. For the detection of a LGM endogenous to the plant substrate, an additional step of subtracting the fluorescence area from the total leaf area and then dividing by the total leaf area is required for the percent disease area calculation.
The effectiveness of a plant treatment agent on plants infected with a disease organism is determined by treating the test unit with a pro-LGM and detecting photon emission. Barley plants cultivated as described above are given 125 μL spray applications of a preventative treatment containing 40, 5, 1, 0.4 and 0.2 ppm flusilazole. The plant treatment agent is formulated by resuspending the appropriate amount of the dried compound in 6 μL of DMSO with shaking overnight, followed by the subsequent addition of 570 μL of a 50/50 Acetone/Water-Trem solution, yielding the desired final concentration. The Water-Trem contains 18 drops of the Trem® 014 surfactant (Henkel Corp, Amber, Pa.) per L of water. The formulated plant treatment agent is applied as a foliar spray application. In this example, a microsprayer apparatus (U.S. Patent Application No. 60/172,928) applying a fine aerosol mist from the tip of an ultrasonic nebulizer, with air assist, to a rotating electrostatically charged perpendicular plant target is employed.
Twenty-four hours following application of the plant treatment agent the barley plants are subsequently inoculated with a suspension of powdery mildew (Erysiphe graminis f sp. hordei) spores, and incubated under the appropriate conditions for a period sufficient to allow the development of visible disease symptoms, as described above. Untreated plants are also infected at this time for the production of untreated, infected controls. Untreated, uninfected control plants are also generated in parallel.
Plants to be rated for fungicide activity are first scored visually by eye for % disease coverage. The same samples are subsequently treated with the pro-LGM fluorescein diacetate. The FDA is formulated in a stock solution at 1 mg FDA/mL acetone. A final working solution is formulated which contains 5 μg/mL fluorescein diacetate and 0.005% Trem® 014. The FDA working solution is applied by spraying the sample using a Preval® sprayer (Precision Valve Corporation, Yonkers, N.Y.) with sufficient solution to wet all surfaces. Care must be taken not to allow access of FDA to leaves with cuts or abraded surfaces. […]

Phytophthora infestans = format: in vivo; details: preventative foliar spray, tomato; for % Disease Area, Photon Imaging: chlorophyll fluorescence; for % Disease Area, Visual Scoring: scored by eye

With `Cc1cccc2sc3nncn3c12` [tricyclazole] as the molecule, how does the “FP fluorescence relative to untreated, inoculated control” value (Magnaportha grisea) read?
The value was “reduced fluorescence”.

Which “% Disease Area, Photon Imaging” value ([1]; 0.2 ppm) does the source give for `C[Si](Cn1cncn1)(c1ccc(F)cc1)c1ccc(F)cc1` [flusilazole] here?
Its value is 64%.

What about the “% Disease Area, Visual Scoring” value ([1]; 0.2 ppm) of the same molecule?
Its value is 52%.

What about the “% Disease Area, Photon Imaging” value ([1]; 0.4 ppm) of the same molecule?
Its value is 27%.

What about the “% Disease Area, Visual Scoring” value ([1]; 0.4 ppm) of the same molecule?
Its value is 19%.

And the “% Disease Area, Photon Imaging” value ([1]; 1 ppm)?
Its value is 24%.

And the “% Disease Area, Visual Scoring” value ([1]; 1 ppm)?
The value was 7%.

And the “% Disease Area, Photon Imaging” value ([1]; 5 ppm)?
The value was 13%.

And the “% Disease Area, Visual Scoring” value ([1]; 5 ppm)?
The value was 1%.

What about the “% Disease Area, Photon Imaging” value ([1]; 40 ppm) of the same molecule?
The value was 0%.

What about the “% Disease Area, Visual Scoring” value ([1]; 40 ppm) of the same molecule?
The value was 0%.

`COCC(=O)N(c1c(C)cccc1C)C(C)C(=O)OC` (centres unmarked) [Ridomil] was tested. Which “% Disease Area, Photon Imaging” value (Phytophthora infestans; 1 ppm) did it give?
The value was 60%.

And the “% Disease Area, Visual Scoring” value (Phytophthora infestans; 1 ppm)?
The value was 53%.

And the “% Disease Area, Photon Imaging” value (Phytophthora infestans; 5 ppm)?
Its value is 10%.

What about the “% Disease Area, Visual Scoring” value (Phytophthora infestans; 5 ppm) of the same molecule?
The value was 24%.

What about the “% Disease Area, Photon Imaging” value (Phytophthora infestans; 20 ppm) of the same molecule?
Its value is 2%.

What about the “% Disease Area, Visual Scoring” value (Phytophthora infestans; 20 ppm) of the same molecule?
The value was 3%.
